Converted amounts (≈) assume the structure as drawn.
Settings: for aqueous solubility: pH 6.8

MDR1-MDCK efflux ratio	intrinsic clearance, human liver microsomes [mL/min/kg]	intrinsic clearance, rat liver microsomes [mL/min/kg]	aqueous solubility [µg/mL]	fraction unbound, human plasma	fraction unbound, rat plasma	SMILES
2.09	15.5	114	34.5 (≈ 98.9 µM)			OCc1ccc(Cn2cc(-c3cc(F)ccc3-n3cccn3)nn2)cc1
2.29	≤ 4.74			1		O=C(NC12CCCC1NCC2)c1ccc(-c2cn[nH]c2)cc1 (stereo not drawn)
7.87	11.5	150	41.5 (≈ 148 µM)			Cn1ccnc1CCNC(=O)c1cccc2cccnc12
1.66	5.49	30.7	151 (≈ 500 µM)			CN(C)[C@@H]1CN(C(=O)CCn2cnc3ccccc32)C[C@H]1O
	16.6	173				Cc1nonc1C(=O)Nc1cccnc1N(C)C
0.558	8.37	49.1	15.8 (≈ 60.3 µM)			COc1cc(NC(=O)c2ccc(F)cc2C)ncn1
1.09	107	443	41.7 (≈ 139 µM)			c1ccc(CCc2n[nH]c(-c3cccc4cnccc34)n2)cc1
1.28	29.5	434	37 (≈ 125 µM)			CCNc1ccnc(N(C)Cc2nc3ccccc3n2C)n1
17.3	395	2390	84.1 (≈ 200 µM)	0.0799	0.184	CN(C)C(=O)C1(Cc2ccccc2-c2ccccc2)CCN(C(=O)C2CCCO2)CC1 (stereo not drawn)
0.976	≤ 4.74	41.1	62.7 (≈ 182 µM)			Brc1ccc(-c2nnc(Cn3cnc4ccccc43)o2)o1
0.669	34.6	2230				Cc1nc(-c2ccc(S(=O)(=O)N(C)C)cc2)cc(C(C)C)n1
0.521	14.2	124	36.4 (≈ 128 µM)			Cc1nc(C)c(CNc2cnn(-c3ccccc3)c2)s1
0.929	≤ 4.74	31				Cc1nnc2ncc(-c3cccc(-c4ccnn4C)c3)cn12
	19.1	296	1.02 (≈ 2.39 µM)			CCN1CCN(c2ccc(NC(=O)c3ncoc3-c3ccc4ccccc4c3)cc2)CC1
0.548	8.03	130	38.1 (≈ 162 µM)			CN1CCN(CCOc2ccccc2N)CC1
1.51	8.05	1030	34.1 (≈ 96.4 µM)			COCCc1nc(-c2cnc(C3CC3)nc2)n(Cc2ccc(F)cc2)n1
1.44	≤ 4.74	20				Cc1nnc(CN(C)Cc2cnn(C)c2C)s1
0.793	12.1	125	10.8 (≈ 30.7 µM)			O=C(c1ccc(Cn2nnc(-c3cccc(F)c3)n2)cc1)N1CCCC1
43.4	≤ 4.74	16.2	69.5 (≈ 197 µM)			Cc1nccc(-c2cccc(NCC(=O)NCC(=O)N3CCCC3)c2)n1
	177	1770				Cc1c(C(=O)NCC2CCSCC2)nnn1-c1cccc2cnccc12
13.6	≤ 4.74	76.8				COc1cccc(Oc2ccc(NC(=O)CN3CCCCC3=O)cn2)c1

MDR1-MDCK efflux ratio	intrinsic clearance, human liver microsomes [mL/min/kg]	intrinsic clearance, rat liver microsomes [mL/min/kg]	aqueous solubility [µg/mL]	fraction unbound, human plasma	fraction unbound, rat plasma	SMILES
0.57	41.9	668	75.9 (≈ 267 µM)			O=C(NCc1ncc(-c2ccccc2)o1)C1CCCCC1
	55.6	391				Cc1nc(CCNc2cnccc2C#N)cs1
1.21	13.5	179	18.4 (≈ 59.1 µM)			CC1(c2nnc(-c3cc(-c4ccccc4)n[nH]3)o2)CCOCC1
0.572	102	338	6.55 (≈ 29.7 µM)			CCOc1ccc(-c2csc(N)n2)cc1
0.785	795	1680	43 (≈ 130 µM)			COC(=O)c1cc(F)c(C)c(NC(=O)CCCc2ccccn2)c1
4.26	61.9	882	52.6 (≈ 161 µM)			O=C(NCCc1csc(N2CCCC2)n1)N1CCSCC1
0.616	12.7	355				CC1CCC(O)(CSc2nnnn2C2CC2)CC1 (stereo not drawn)
2.18	270	2180	48.9 (≈ 138 µM)			Cc1cc(C(=O)N2CCOC(C)(C)C2)cc(C)c1OCc1cccnc1
1.22	21.6	75.5				COc1ccc(-c2cc(C(C)(C)C)nc(-c3ncccn3)n2)cc1
	180	727	33.5 (≈ 102 µM)			Cc1cccc2cc(C(=O)NCCSc3nccn3C)n(C)c12
0.473	219	1550				CCc1ccc(CC)c(C(=O)CSc2nncs2)c1
0.236	97.4	593	11.6 (≈ 36.5 µM)			O=C(CCc1ccc2c(c1)OCO2)Nc1nc2c(s1)CCC2
	21.3	188				CCc1nc2ccccc2n1CC(=O)Nc1cnc2ccccc2c1
0.533	253	564				CNc1ccc(/C=C/c2ccc(OCCOCCOCCF)nc2)cc1
	9.52	65.2				CC(=O)Nc1ccc(C(=O)Nc2cc(-c3cccs3)ccc2N)cc1
	31.8	239				Oc1cncc(/C=C/c2nc(-c3ccncc3)no2)c1
0.805	29.4	552	44.5 (≈ 137 µM)			CO[C@H]1CC[C@@H](C(=O)c2ccc3nc4c(cc3c2)CCCO4)CC1
			1.9 (≈ 5.39 µM)			N#Cc1cnn(-c2nc(-c3ccc(Br)s3)cs2)c1N
16.9				0.00867	0.00796	CC(C)[C@H](CO)Nc1nc(Nc2cc(N)cc(Cl)c2)c2ncn(C(C)C)c2n1
117	44.7	840				CNCc1cc(N(C)C)nc(C2CCCN2C(=O)c2oc3ccc(Cl)cc3c2C)n1 (stereo not drawn)
